This is an account of results in patent publication US11026922B2, “Compositions comprising melatonin and flavonoids for use in the treatment of tumours resistant to chemotherapy” (priority 2014, dated 2021).

Experiment [1] relates to chemoresistant MDA-MB-231 human tumour cells (breast adenocarcinoma). Kind of experiment: Viability of MDA-MB-231 cells, xCELLigence assay (Table 5). In kind it is cell-based. To be noted: conclusion from Tables 5 and 6 (MDA-MB-231 and MCF-7).
Experiment [2] has as its system MDA-MB-231 (breast adenocarcinoma). The experiment can be described thus: Cell viability of chemoresistant MDA-MB-231 cells (Tables 1, 2, 4). In kind it is cell-based, human. To be noted: alone or in association with cyclophosphamide. The source says: The activity of the association of at least one flavonoid, preferably selected from the group comprising or, alternatively, consisting of oxerutin, diosmin, hesperidin and rutin in association with melatonin and with synthetic chemotherapeutic agents (cyclophosphamide/methotrexate) and/or arctigenin, arctiin, berberine, berbamine, sanguinarine and chelerythrine (indicated with the term “Extracts” in the Tables) was studied in resistant cell lines of adenocarcinomas and carcinomas in comparison with chemosensitive tumour cell lines and line cells.

With `COc1ccc2[nH]cc(CCNC(C)=O)c2c1` [Melatonin, melatonin], in experiment [1], the “effect on the anti-tumour activity of flavonoids” value is reported as “enhances the anti-tumour activity of flavonoids”. On to `O=c1c(O)c(-c2ccc(O)c(O)c2)oc2cc(O)cc(O)c12` [Quercetin, quercetin], for which, in experiment [2], the “synergistic effects in association with cyclophosphamide” value was “absence of synergistic effects”.
